Results published in ChEMBL document CHEMBL5647692, “The novel dual PI3K/mTOR inhibitor NVP-BGT226 displays cytotoxic activity in both normoxic and hypoxic hepatocarcinoma cells” (Oncotarget, 2015).
The source made the active and inactive calls. The calls are words filed in the database; no cut-off is given here.

Tests used:
[1] = Inhibition of PI3K/Akt/mTOR signaling pathway in human HepG2 cells assessed as reduction in phosphorylation of Akt incubated for 1 hr under normoxia condition by Western blotting analysis; format: cell-based; conditions: dose 0.25-1 µM
Hep 3B2 [2] = assay: Induction of cell cycle arrest in human Hep3B cells assessed as increase in accumulation of cells in G0/G1 phase incubated at 0.01 to 0.1 uM for 24 hrs by propidium iodide staining based muse cell analysis; format: functional; conditions: dose 0.01-0.1 µM
SNU-475 [3] = assay: Induction of apoptosis in human SNU-475 cells incubated for 24 hrs by Annexin-V/7-AAD staining based muse cell analyzer method; format: functional; conditions: dose 0.01-0.5 µM
[4] = Inhibition of PI3K/Akt/mTOR signaling pathway in human SNU-475 cells assessed as reduction in phosphorylation of mTORC1/2 incubated for 1 hr under normoxia condition by Western blotting analysis; format: cell-based; conditions: dose 0.25-1 µM
[5] = Inhibition of PI3K/Akt/mTOR signaling pathway in human Mahlavu cells assessed as reduction in phosphorylation of mTORC1 substrate S6 incubated for 1 hr under normoxia condition by Western blotting analysis; format: cell-based; conditions: dose 0.25-1 µM
SNU-475 [6] = assay: Induction of autophagy in human SNU-475 cells assessed as increase in lipidation of LC3A/B II level at 0.5 uM incubated for 24 hrs in presence of chloroquine by Western blot analysis; format: functional, cell-based
[7] = Inhibition of PI3K/Akt/mTOR signaling pathway in human SNU-475 cells assessed as reduction in phosphorylation of Akt at 1 to 10 nM incubated for 1 hr under hypoxia condition by Western blotting analysis; format: cell-based; conditions: dose 1-10 nM
HepG2 = assay: Cytotoxicity against human HepG2 cells assessed as reduction in cell viability at 0.5 uM incubated for 24 hrs in presence of 3-Methyladenine by MTT assay; format: functional, cell-based
Mahlavu [8] = assay: Induction of cell cycle arrest in human Mahlavu cells assessed as decrease in accumulation of cells in G2/M phase incubated at 0.01 to 0.1 uM for 24 hrs by propidium iodide staining based muse cell analysis; format: functional; conditions: dose 0.01-0.1 µM
Mahlavu [9] = assay: Induction of cell cycle arrest in human Mahlavu cells assessed as increase in accumulation of cells in G0/G1 phase incubated at 0.01 to 0.1 uM for 24 hrs by propidium iodide staining based muse cell analysis; format: functional; conditions: dose 0.01-0.1 µM
Mahlavu [10] = assay: Cytotoxicity against human Mahlavu cells assessed as reduction in cell viability at 0.5 uM incubated for 24 hrs in presence of chloroquine under hypoxia condition by MTT assay; format: functional, cell-based
[11] = Inhibition of PI3K/Akt/mTOR signaling pathway in human HepG2 cells assessed as reduction in phosphorylation of mTORC1 substrate S6 incubated for 1 hr under normoxia condition by Western blotting analysis; format: cell-based; conditions: dose 0.25-1 µM
Hep 3B2 [12] = assay: Induction of cell cycle arrest in human Hep3B cells assessed as decrease in accumulation of cells in G2/M phase incubated at 0.01 to 0.1 uM for 24 hrs by propidium iodide staining based muse cell analysis; format: functional; conditions: dose 0.01-0.1 µM
Hep 3B2 [13] = assay: Cytotoxicity against human Hep3B cells assessed as reduction in cell viability at 0.5 uM incubated for 24 hrs in presence of 3-Methyladenine under hypoxia condition by MTT assay; format: functional, cell-based
Mahlavu [14] = assay: Induction of cell cycle arrest in human Mahlavu cells assessed as decrease in accumulation of cells in S phase incubated at 0.01 to 0.1 uM for 24 hrs by propidium iodide staining based muse cell analysis; format: functional; conditions: dose 0.01-0.1 µM
Hep 3B2 [15] = assay: Cytotoxicity against human Hep3B cells assessed as reduction in cell viability at 0.5 uM incubated for 24 hrs in presence of 3-Methyladenine by MTT assay; format: functional, cell-based
[16] = Inhibition of PI3K/Akt/mTOR signaling pathway in human HepG2 cells assessed as reduction in phosphorylation of mTORC1/2 incubated for 1 hr under normoxia condition by Western blotting analysis; format: cell-based; conditions: dose 0.25-1 µM
Mahlavu [17] = assay: Induction of apoptosis in human Mahlavu cells assessed as necrotic cells at 0.66 uM incubated for 24 hrs by Annexin-V/7-AAD staining based muse cell analyzer method (reference value: 0.67 %); format: functional
Mahlavu [18] = assay: Induction of apoptosis in human Mahlavu cells incubated for 24 hrs by Annexin-V/7-AAD staining based muse cell analyzer method; format: functional; conditions: dose 0.01-0.5 µM
SNU-475 [19] = assay: Induction of apoptosis in human SNU-475 cells assessed as cleaved PARP level at 0.5 uM incubated for 24 hrs by Western blotting analysis; format: functional, cell-based
[20] = Inhibition of PI3K/Akt/mTOR signaling pathway in human SNU-449 cells assessed as reduction in phosphorylation of Akt incubated for 1 hr under normoxia condition by Western blotting analysis; format: cell-based; conditions: dose 0.25-1 µM
[21] = Inhibition of PI3K/Akt/mTOR signaling pathway in human SNU-449 cells assessed as reduction in phosphorylation of mTORC1 substrate S6 incubated for 1 hr under normoxia condition by Western blotting analysis; format: cell-based; conditions: dose 0.25-1 µM
[22] = Inhibition of PI3K/Akt/mTOR signaling pathway in human SNU-475 cells assessed as reduction in phosphorylation of Akt incubated for 1 hr under normoxia condition by Western blotting analysis; format: cell-based; conditions: dose 0.25-1 µM
SNU-449 [23] = assay: Induction of apoptosis in human SNU-449 cells assessed as viable cells at 1.5 uM incubated for 24 hrs by Annexin-V/7-AAD staining based muse cell analyzer method (reference value: 90.07 %); format: functional; conditions: read-out: Activity
Mahlavu [24] = assay: Anti-tumor activity against human Mahlavu cells assessed as reduction of VEGF level incubated for 24 hrs under hypoxia condition by Western blot analysis; format: functional, cell-based; conditions: dose 0.01-0.1 µM
[25] = Inhibition of PI3K/Akt/mTOR signaling pathway in human Mahlavu cells assessed as reduction in S6 phosphorylation at 1 to 10 nM incubated for 1 hr under hypoxia condition by Western blotting analysis; format: cell-based; conditions: dose 1-10 nM
[26] = Inhibition of PI3K/Akt/mTOR signaling pathway in human SNU-475 cells assessed as reduction in S6 phosphorylation at 1 to 10 nM incubated for 1 hr under normoxia condition by Western blotting analysis; format: cell-based; conditions: dose 1-10 nM
Hep 3B2 [27] = assay: Anti-tumor activity against human Hep3B cells assessed as reduction of VEGF level incubated for 24 hrs under hypoxia condition by Western blot analysis; format: functional, cell-based; conditions: dose 0.01-0.1 µM
Mahlavu [28] = assay: Induction of autophagy in human Mahlavu cells assessed as reduction in SQSTM1/p62 level by Western blot analysis; format: functional, cell-based; conditions: dose 0.1-0.5 µM
SNU-475 [29] = assay: Cytotoxicity against human SNU-475 cells assessed as reduction in cell viability incubated for 24 hrs under normoxia condition by MTT assay; format: functional, cell-based
Hep 3B2 [30] = assay: Induction of apoptosis in human Hep3B cells assessed as cleaved Caspase 9 level at 0.5 uM incubated for 24 hrs by Western blotting analysis; format: functional, cell-based
[31] = target: Hypoxia-inducible factor 1-alpha (Homo sapiens) (UniProt Q16665); assay: Inhibition of HIF-1alpha in human Hep3B cells incubated for 6 hrs under hypoxia condition by Western blot analysis; format: cell-based; conditions: dose 0.01-0.1 µM
SNU-449 [32] = assay: Induction of apoptosis in human SNU-449 cells assessed as late apoptotic cells at 1.5 uM incubated for 24 hrs by Annexin-V/7-AAD staining based muse cell analyzer method (reference value: 5.03 %); format: functional
Mahlavu [33] = assay: Induction of autophagy in human Mahlavu cells assessed as increase in lipidation of LC3A/B II level at 0.5 uM incubated for 24 hrs in presence of chloroquine by Western blot analysis; format: functional, cell-based

Sequence of Hypoxia-inducible factor 1-alpha (Homo sapiens) (Q16665 whole entry, looked up): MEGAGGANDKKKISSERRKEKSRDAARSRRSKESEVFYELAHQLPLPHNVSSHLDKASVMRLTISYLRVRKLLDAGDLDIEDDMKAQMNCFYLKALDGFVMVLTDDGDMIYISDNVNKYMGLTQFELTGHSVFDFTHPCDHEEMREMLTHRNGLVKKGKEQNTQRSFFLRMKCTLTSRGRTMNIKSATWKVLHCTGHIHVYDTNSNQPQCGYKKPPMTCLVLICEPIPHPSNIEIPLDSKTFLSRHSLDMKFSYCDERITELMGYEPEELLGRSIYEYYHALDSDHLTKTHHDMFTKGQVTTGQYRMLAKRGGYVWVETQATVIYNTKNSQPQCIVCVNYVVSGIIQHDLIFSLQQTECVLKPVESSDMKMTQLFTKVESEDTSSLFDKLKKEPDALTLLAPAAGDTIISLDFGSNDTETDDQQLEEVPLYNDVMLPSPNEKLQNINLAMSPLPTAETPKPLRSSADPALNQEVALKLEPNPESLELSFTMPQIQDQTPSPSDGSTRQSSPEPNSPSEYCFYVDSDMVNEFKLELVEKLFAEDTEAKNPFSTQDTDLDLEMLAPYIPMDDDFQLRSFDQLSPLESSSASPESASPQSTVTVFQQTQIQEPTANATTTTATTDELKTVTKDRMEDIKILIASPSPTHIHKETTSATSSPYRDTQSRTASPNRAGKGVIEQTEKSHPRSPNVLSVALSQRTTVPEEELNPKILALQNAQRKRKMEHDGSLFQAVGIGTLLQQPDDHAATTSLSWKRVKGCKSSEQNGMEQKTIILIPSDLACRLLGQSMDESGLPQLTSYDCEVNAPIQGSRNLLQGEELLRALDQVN

inhibition [31]: Dose-Dependent Effect
Compound: COc1ccc(-c2ccc3ncc4c(c3c2)n(-c2ccc(N3CCNCC3)c(C(F)(F)F)c2)c(=O)n4C)cn1 [BGT-226 FREE BASE]
inhibition [1]: Dose-Dependent Effect
Activity (Hep 3B2 [2]): Active
Activity (SNU-475 [3]): Dose-Dependent Effect
inhibition [4]: Dose-Dependent Effect
inhibition [5]: Dose-Dependent Effect
Activity (SNU-475 [6]): Active
inhibition [7]: Active
Activity (HepG2): Active
Activity (Mahlavu [8]): Active
Activity (Mahlavu [9]): Active
Activity (Mahlavu [10]): Active
inhibition [11]: Dose-Dependent Effect
Activity (Hep 3B2 [12]): Active
Activity (Hep 3B2 [13]): Active
Activity (Mahlavu [14]): Active
Activity (Hep 3B2 [15]): Active
inhibition [16]: Dose-Dependent Effect
Activity (Mahlavu [17]): 0%
Activity (Mahlavu [18]): Dose-Dependent Effect
Activity (SNU-475 [19]): Active
inhibition [20]: Dose-Dependent Effect
inhibition [21]: Dose-Dependent Effect
inhibition [22]: Dose-Dependent Effect
viability at 1.5 µM (SNU-449 [23]): 48.6%
Activity (Mahlavu [24]): Dose-Dependent Effect
inhibition [25]: Active
inhibition [26]: Active
Activity (Hep 3B2 [27]): Dose-Dependent Effect
Activity (Mahlavu [28]): Dose-Dependent Effect
Activity (SNU-475 [29]): Active
Activity (Hep 3B2 [30]): Active
Activity (SNU-449 [32]): 32.14%
Activity (Mahlavu [33]): Active
